From PubChem BioAssay AID1745844 (Carcinogenic Potency Database (CPDB), 2022)
Several values for one entry are separate records, joined by “and”; a condition that tells them apart may be missing. Equal entries are not always repeated. Activity calls are given as the source filed them. The rule behind the calls is not given here.

Test system: rodent lifetime carcinogenesis bioassay, tumor incidence TD50
Assay: chronic cancer bioassays in animals – CPDB, compiled studies (AID 1745844)
[1] = mouse, strain ICI, males, by gavage, site: liver, lesion: several types, types named in the paper, dosed 80 weeks, study length 98 weeks
[2] = mouse, strain ICI, males, by gavage, site: lung, lesion: several types, types named in the paper, dosed 80 weeks, study length 98 weeks

ClC(Cl)Cl
TD50 (dog, strain Beagle, females, in feed, site: any site (literature study), lesion: several types, types named in the paper, dosed 376 weeks, study length 397 weeks): 10 mg/kg/day (inactive) | carcinogen call (dog, strain Beagle, females, in feed, site: liver, lesion: one or several types, types not named, dosed 376 weeks, study length 397 weeks): negative (inactive) | TD50 (dog, strain Beagle, males, in feed, site: any site (literature study), lesion: several types, types named in the paper, dosed 376 weeks, study length 397 weeks): 13.3 mg/kg/day (inactive) | carcinogen call (dog, strain Beagle, males, in feed, site: liver, lesion: one or several types, types not named, dosed 376 weeks, study length 397 weeks): negative (inactive) | TD50 (mouse, strain B6C3F1, females, by gavage, site: any site (literature study), lesion: several types, types named in the paper, dosed 78 weeks, study length 92 weeks): 54.1 mg/kg/day | TD50 (mouse, strain B6C3F1, females, by gavage, site: liver, lesion: hepatocellular adenoma + hepatocellular carcinoma + neoplastic nodule, dosed 78 weeks, study length 92 weeks): 48 mg/kg/day | TD50 (mouse, strain B6C3F1, females, by gavage, site: liver, lesion: hepatocellular carcinoma, dosed 78 weeks, study length 92 weeks): 48 mg/kg/day | carcinogen call (mouse, strain B6C3F1, females, in drinking water, site: any site (literature study), lesion: several types, types named in the paper, dosed 104 weeks, study length 104 weeks): negative (inactive) | carcinogen call (mouse, strain B6C3F1, females, in drinking water, site: liver, lesion: hepatocellular adenoma, dosed 104 weeks, study length 104 weeks): negative (inactive) | TD50 (mouse, strain B6C3F1, females, in drinking water, site: liver, lesion: hepatocellular carcinoma, dosed 104 weeks, study length 104 weeks): 20200 mg/kg/day (inactive) | carcinogen call (mouse, strain B6C3F1, females, in drinking water, site: liver, lesion: several types, types named in the paper, dosed 104 weeks, study length 104 weeks): negative (inactive) | TD50 (mouse, strain B6C3F1, males, by gavage, site: any site (literature study), lesion: several types, types named in the paper, dosed 78 weeks, study length 92 weeks): 71.1 mg/kg/day | TD50 (mouse, strain B6C3F1, males, by gavage, site: liver, lesion: hepatocellular adenoma + hepatocellular carcinoma + neoplastic nodule, dosed 78 weeks, study length 92 weeks): 56.2 mg/kg/day | TD50 (mouse, strain B6C3F1, males, by gavage, site: liver, lesion: hepatocellular carcinoma, dosed 78 weeks, study length 92 weeks): 56.2 mg/kg/day | carcinogen call (mouse, strain C57BL, males, by gavage, site: any site (literature study), lesion: several types, types named in the paper, dosed 80 weeks, study length 104 weeks): negative (inactive) | carcinogen call (mouse, strain C57BL, males, by gavage, site: liver, lesion: one or several types, types not named, dosed 80 weeks, study length 104 weeks): negative (inactive) | TD50 (mouse, strain C57BL, males, by gavage, site: lung, lesion: several types, types named in the paper, dosed 80 weeks, study length 104 weeks): 728 mg/kg/day (inactive) | carcinogen call (mouse, strain CBA, males, by gavage, site: any site (literature study), lesion: several types, types named in the paper, dosed 80 weeks, study length 104 weeks): negative (inactive) | carcinogen call (mouse, strain CBA, males, by gavage, site: liver, lesion: several types, types named in the paper, dosed 80 weeks, study length 104 weeks): negative (inactive) | carcinogen call (mouse, strain CBA, males, by gavage, site: lung, lesion: several types, types named in the paper, dosed 80 weeks, study length 104 weeks): negative (inactive) | TD50 (mouse, strain CF-1, males, by gavage, site: any site (literature study), lesion: several types, types named in the paper, dosed 80 weeks, study length 93 weeks): 140 mg/kg/day (inactive) | TD50 (mouse, strain CF-1, males, by gavage, site: liver, lesion: one or several types, types not named, dosed 80 weeks, study length 93 weeks): 1430 mg/kg/day (inactive) | TD50 (mouse, strain CF-1, males, by gavage, site: lung, lesion: several types, types named in the paper, dosed 80 weeks, study length 93 weeks): 376 mg/kg/day (inactive) | TD50 (mouse, strain CFLP, males, by gavage, site: kidney, lesion: several types, types named in the paper, dosed 80 weeks, study length 104 weeks): 153 mg/kg/day | carcinogen call (mouse, strain CFLP, males, by gavage, site: liver, lesion: one or several types, types not named, dosed 80 weeks, study length 104 weeks): negative (inactive) | TD50 (mouse, strain CFLP, males, by gavage, site: lung, lesion: one or several types, types not named, dosed 80 weeks, study length 104 weeks): 4350 mg/kg/day (inactive) | TD50 (mouse, strain Crj:BDF1, females, inhaled, site: liver, lesion: hepatocellular carcinoma, dosed 104 weeks, study length 104 weeks): 2670 mg/kg/day | TD50 (mouse, strain Crj:BDF1, females, inhaled, site: liver, lesion: several types, types named in the paper, dosed 104 weeks, study length 104 weeks): 909 mg/kg/day | TD50 (mouse, strain Crj:BDF1, females, inhaled, site: pituitary gland, lesion: adenoma, dosed 104 weeks, study length 104 weeks): 2070 mg/kg/day | TD50 (mouse, strain Crj:BDF1, males, inhaled, site: kidney, lesion: renal-cell adenoma, dosed 104 weeks, study length 104 weeks): 1250 mg/kg/day | TD50 (mouse, strain Crj:BDF1, males, inhaled, site: kidney, lesion: renal-cell carcinoma, dosed 104 weeks, study length 104 weeks): 287 mg/kg/day | TD50 (mouse, strain Crj:BDF1, males, inhaled, site: kidney, lesion: several types, types named in the paper, dosed 104 weeks, study length 104 weeks): 226 mg/kg/day | TD50 (mouse, strain Crj:BDF1, males, inhaled, site: liver, lesion: several types, types named in the paper, dosed 104 weeks, study length 104 weeks): 402 mg/kg/day | TD50 (mouse, strain Crj:BDF1, males, inhaled, site: lung, lesion: alveolar/bronchiolar carcinoma, dosed 104 weeks, study length 104 weeks): 3530 mg/kg/day | carcinogen call (mouse, strain ICI, females, by gavage, site: any site (literature study), lesion: several types, types named in the paper, dosed 80 weeks, study length 96 weeks): negative (inactive) | carcinogen call (mouse, strain ICI, females, by gavage, site: liver, lesion: one or several types, types not named, dosed 80 weeks, study length 96 weeks): negative (inactive) | TD50 (mouse, strain ICI, females, by gavage, site: lung, lesion: one or several types, types not named, dosed 80 weeks, study length 96 weeks): 316 mg/kg/day (inactive) | TD50 (mouse, strain ICI, males, by gavage, site: any site (literature study), lesion: several types, types named in the paper, dosed 80 weeks, study length 96 weeks): 45.4 mg/kg/day | TD50 (mouse, strain ICI, males, by gavage, site: any site (literature study), lesion: several types, types named in the paper, dosed 80 weeks, study length 98 weeks): 88.5 mg/kg/day | TD50 (mouse, strain ICI, males, by gavage, site: kidney, lesion: several types, types named in the paper, dosed 80 weeks, study length 96 weeks): 139 mg/kg/day | TD50 (mouse, strain ICI, males, by gavage, site: kidney, lesion: several types, types named in the paper, dosed 80 weeks, study length 98 weeks): 278 mg/kg/day and 95.5 mg/kg/day | TD50 (mouse, strain ICI, males, by gavage, site: liver, lesion: one or several types, types not named, dosed 80 weeks, study length 96 weeks): 324 mg/kg/day (inactive) | TD50 [1]: 437 mg/kg/day (inactive) | carcinogen call [1]: negative (inactive) | TD50 (mouse, strain ICI, males, by gavage, site: lung, lesion: one or several types, types not named, dosed 80 weeks, study length 96 weeks): 9830 mg/kg/day (inactive) | TD50 [2]: 336 mg/kg/day (inactive) | carcinogen call [2]: negative (inactive) | TD50 (rat, strain F344/DuCrj, females, inhaled, site: kidney, lesion: renal-cell adenoma, dosed 104 weeks, study length 104 weeks): 1590 mg/kg/day (inactive) | TD50 (rat, strain F344/DuCrj, females, inhaled, site: kidney, lesion: transitional-cell carcinoma, dosed 104 weeks, study length 104 weeks): 1590 mg/kg/day (inactive) | TD50 (rat, strain F344/DuCrj, females, inhaled, site: liver, lesion: hepatocellular adenoma, dosed 104 weeks, study length 104 weeks): 2180 mg/kg/day (inactive) | carcinogen call (rat, strain F344/DuCrj, males, inhaled, site: kidney, lesion: one or several types, types not named, dosed 104 weeks, study length 104 weeks): negative (inactive) | carcinogen call (rat, strain F344/DuCrj, males, inhaled, site: liver, lesion: several types, types named in the paper, dosed 104 weeks, study length 104 weeks): negative (inactive) | TD50 (rat, strain Osborne-Mendel, females, by gavage, site: any site (literature study), lesion: several types, types named in the paper, dosed 78 weeks, study length 110 weeks): 68.2 mg/kg/day | TD50 (rat, strain Osborne-Mendel, females, by gavage, site: liver, lesion: hepatocellular adenoma + hepatocellular carcinoma + neoplastic nodule, dosed 78 weeks, study length 110 weeks): 1130 mg/kg/day | TD50 (rat, strain Osborne-Mendel, females, by gavage, site: thyroid gland, lesion: c-cell adenoma + c-cell carcinoma + follicular-cell adenoma + follicular-cell carcinoma, dosed 78 weeks, study length 110 weeks): 126 mg/kg/day (inactive) | TD50 (rat, strain Osborne-Mendel, males, by gavage, site: any site (literature study), lesion: several types, types named in the paper, dosed 78 weeks, study length 110 weeks): 194 mg/kg/day | TD50 (rat, strain Osborne-Mendel, males, by gavage, site: kidney, lesion: tubular-cell adenoma + tubular-cell adenocarcinoma, dosed 78 weeks, study length 110 weeks): 119 mg/kg/day | TD50 (rat, strain Osborne-Mendel, males, by gavage, site: liver, lesion: hepatocellular adenoma + hepatocellular carcinoma + neoplastic nodule, dosed 78 weeks, study length 110 weeks): 455 mg/kg/day | TD50 (rat, strain Osborne-Mendel, males, in drinking water, site: all sites, lesion: neurofibroma, dosed 104 weeks, study length 104 weeks): 2200 mg/kg/day | TD50 (rat, strain Osborne-Mendel, males, in drinking water, site: all sites, lesion: several types, types named in the paper, dosed 104 weeks, study length 104 weeks): 1360 mg/kg/day | TD50 (rat, strain Osborne-Mendel, males, in drinking water, site: any site (literature study), lesion: several types, types named in the paper, dosed 104 weeks, study length 104 weeks): 1970 mg/kg/day | TD50 (rat, strain Osborne-Mendel, males, in drinking water, site: kidney, lesion: several types, types named in the paper, dosed 104 weeks, study length 104 weeks): 519 mg/kg/day and 606 mg/kg/day | TD50 (rat, strain Osborne-Mendel, males, in drinking water, site: kidney, lesion: tubular-cell adenoma, dosed 104 weeks, study length 104 weeks): 972 mg/kg/day | TD50 (rat, strain Sprague-Dawley, females, by gavage, site: any site (literature study), lesion: malignant tumor, dosed 80 weeks, study length 95 weeks): 276 mg/kg/day (inactive) | TD50 (rat, strain Sprague-Dawley, females, by gavage, site: any site (literature study), lesion: several types, types named in the paper, dosed 80 weeks, study length 95 weeks): 78.3 mg/kg/day (inactive) | TD50 (rat, strain Sprague-Dawley, females, by gavage, site: liver, lesion: cystadenoma, dosed 80 weeks, study length 95 weeks): 1200 mg/kg/day (inactive) | carcinogen call (rat, strain Sprague-Dawley, males, by gavage, site: any site (literature study), lesion: malignant tumor, dosed 80 weeks, study length 95 weeks): negative (inactive) | carcinogen call (rat, strain Sprague-Dawley, males, by gavage, site: any site (literature study), lesion: several types, types named in the paper, dosed 80 weeks, study length 95 weeks): negative (inactive) | carcinogen call (rat, strain Sprague-Dawley, males, by gavage, site: liver, lesion: one or several types, types not named, dosed 80 weeks, study length 95 weeks): negative (inactive) | TD50 (rat, strain Wistar, females, in drinking water, site: liver, lesion: hepatocellular carcinoma, dosed 187 weeks, study length 187 weeks): 10000 mg/kg/day | TD50 (rat, strain Wistar, females, in drinking water, site: liver, lesion: neoplastic nodule, dosed 187 weeks, study length 187 weeks): 883 mg/kg/day | TD50 (rat, strain Wistar, males, in drinking water, site: kidney, lesion: adenocarcinoma, dosed 172 weeks, study length 172 weeks): 5300 mg/kg/day | TD50 (rat, strain Wistar, males, in drinking water, site: kidney, lesion: adenoma, dosed 172 weeks, study length 172 weeks): 5300 mg/kg/day | TD50 (rat, strain Wistar, males, in drinking water, site: liver, lesion: hepatocellular carcinoma, dosed 172 weeks, study length 172 weeks): 5300 mg/kg/day

CN=C(NC#N)NCCSCc1nc[nH]c1C
TD50 (mouse, strain C57BL/6, females, in drinking water, site: liver, lesion: several types, types named in the paper, dosed 126 weeks, study length 126 weeks): 52200 mg/kg/day (inactive) | carcinogen call (mouse, strain C57BL/6, females, in drinking water, site: lung, lesion: one or several types, types not named, dosed 126 weeks, study length 126 weeks): negative (inactive) | carcinogen call (rat, strain Charles River CD (Sprague-Dawley), females, by gavage, site: gastric mucosa, lesion: carcinoid tumor, malignant, dosed 105 weeks, study length 105 weeks): negative (inactive) | carcinogen call (rat, strain Charles River CD (Sprague-Dawley), males, by gavage, site: gastric mucosa, lesion: carcinoid tumor, malignant, dosed 105 weeks, study length 105 weeks): negative (inactive)

CC(C)CN(N=O)C(=N)N[N+](=O)[O-]
carcinogen call (rat, strain Wistar, males, in drinking water, site: stomach, glandular, lesion: one or several types, types not named, dosed 52 weeks, study length 78 weeks): negative (inactive)
